{"source": "ChEMBL document CHEMBL5325484", "about": "“Quinolinetrione-tacrine hybrids as multi-target-directed ligands against Alzheimer's disease” (Bioorg Med Chem, 2023)", "key": {"[1]": {"tested_on": "HepG2", "experiment": "Cytotoxicity against human HepG2 cells assessed as reduction in cell viability at 10 uM incubated for 24 hrs by MTT assay relative to control", "assay_type": "toxicity, cell-based", "conditions": "hepg2, 24 h"}, "[2]": {"tested_on": "HepG2", "experiment": "Cytotoxicity against human HepG2 cells assessed as reduction in cell viability at 100 uM incubated for 24 hrs by MTT assay", "assay_type": "toxicity, cell-based", "conditions": "hepg2, 24 h"}, "[3]": {"tested_on": "HepG2", "experiment": "Cytotoxicity against human HepG2 cells assessed as reduction in cell viability at 1 uM incubated for 24 hrs by MTT assay", "assay_type": "toxicity, cell-based", "conditions": "hepg2, 24 h"}, "[4]": {"target": "Cholinesterase (Homo sapiens, UniProt P06276)", "sequence (P06276 whole entry)": "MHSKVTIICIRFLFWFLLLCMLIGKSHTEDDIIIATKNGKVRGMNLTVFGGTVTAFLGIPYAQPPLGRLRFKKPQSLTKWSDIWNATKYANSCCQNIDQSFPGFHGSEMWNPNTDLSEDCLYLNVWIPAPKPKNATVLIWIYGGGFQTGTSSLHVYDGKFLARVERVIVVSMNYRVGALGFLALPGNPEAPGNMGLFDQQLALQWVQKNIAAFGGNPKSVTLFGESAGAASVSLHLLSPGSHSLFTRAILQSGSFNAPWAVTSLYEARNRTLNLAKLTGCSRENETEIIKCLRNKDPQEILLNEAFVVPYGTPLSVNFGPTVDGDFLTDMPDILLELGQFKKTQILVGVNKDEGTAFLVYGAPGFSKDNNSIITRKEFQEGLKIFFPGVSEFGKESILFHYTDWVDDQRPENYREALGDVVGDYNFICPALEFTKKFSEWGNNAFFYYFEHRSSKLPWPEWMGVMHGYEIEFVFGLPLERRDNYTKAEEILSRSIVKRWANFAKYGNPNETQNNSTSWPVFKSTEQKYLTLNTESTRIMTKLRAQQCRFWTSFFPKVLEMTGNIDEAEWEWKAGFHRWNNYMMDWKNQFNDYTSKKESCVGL", "experiment": "Inhibition of human serum BChE using butyrylthiocholine iodide as substrate preincubated with compound for 20 mins followed by substrate addition and measured after 240 sec by spectrophotometer based Ellman's method", "assay_type": "cell-free"}, "[5]": {"target": "Acetylcholinesterase (Homo sapiens, UniProt P22303)", "sequence (P22303 whole entry)": "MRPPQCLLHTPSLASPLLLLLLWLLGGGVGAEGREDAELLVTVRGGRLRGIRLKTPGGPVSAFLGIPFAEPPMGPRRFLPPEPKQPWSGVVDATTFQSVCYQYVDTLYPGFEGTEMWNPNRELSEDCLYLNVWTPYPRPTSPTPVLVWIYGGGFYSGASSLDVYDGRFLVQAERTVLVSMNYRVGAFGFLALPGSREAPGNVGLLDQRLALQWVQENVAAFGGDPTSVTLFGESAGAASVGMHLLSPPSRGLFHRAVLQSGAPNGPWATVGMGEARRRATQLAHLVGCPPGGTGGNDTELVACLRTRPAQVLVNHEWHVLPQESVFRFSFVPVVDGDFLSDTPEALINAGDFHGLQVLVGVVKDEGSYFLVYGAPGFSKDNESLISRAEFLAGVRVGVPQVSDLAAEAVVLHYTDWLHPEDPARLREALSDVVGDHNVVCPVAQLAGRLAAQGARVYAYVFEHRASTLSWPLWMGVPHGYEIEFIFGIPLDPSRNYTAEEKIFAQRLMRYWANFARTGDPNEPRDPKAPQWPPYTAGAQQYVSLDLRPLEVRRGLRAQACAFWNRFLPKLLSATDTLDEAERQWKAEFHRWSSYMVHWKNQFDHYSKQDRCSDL", "experiment": "Inhibition of recombinant human AChE using acetylthiocholine iodide as substrate preincubated with compound for 20 mins followed by substrate addition and measured after 240 sec by spectrophotometer based Ellman's method"}}, "note": "pIC50: −log10 of the molar value.", "data": [{"smiles": "Cc1cc(=O)[nH]c2c1C(=O)C(NCCCCNc1c3c(nc4ccccc14)CCCC3)=CC2=O", "values": [{"measurement": "Activity", "setting": "[1]", "value": 14, "unit": "%"}, {"measurement": "Activity", "setting": "[2]", "value": "Toxic"}, {"measurement": "Activity", "setting": "[3]", "value": "Non-Toxic"}, {"measurement": "pIC50", "setting": "[4]", "value": 6.96}, {"measurement": "pIC50", "setting": "[5]", "value": 7.23}]}, {"smiles": "Cc1cc(=O)[nH]c2c1C(=O)C(NCCNc1c3c(nc4cc(Cl)ccc14)CCCC3)=CC2=O", "values": [{"measurement": "Activity", "setting": "[1]", "value": 50, "unit": "%"}, {"measurement": "Activity", "setting": "[2]", "value": "Toxic"}, {"measurement": "Activity", "setting": "[3]", "value": "Non-Toxic"}, {"measurement": "pIC50", "setting": "[4]", "value": 5.68}, {"measurement": "pIC50", "setting": "[5]", "value": 6.92}]}, {"smiles": "Cc1cc(=O)[nH]c2c1C(=O)C(NCCNc1c3c(nc4ccccc14)CCCC3)=CC2=O", "values": [{"measurement": "Activity", "setting": "[1]", "value": 12, "unit": "%"}, {"measurement": "Activity", "setting": "[2]", "value": "Toxic"}, {"measurement": "Activity", "setting": "[3]", "value": "Non-Toxic"}, {"measurement": "pIC50", "setting": "[4]", "value": 6.74}, {"measurement": "pIC50", "setting": "[5]", "value": 6.18}]}, {"smiles": "Cc1cc(=O)[nH]c2c1C(=O)C(NCCCNc1c3c(nc4cc(Cl)ccc14)CCCC3)=CC2=O", "values": [{"measurement": "Activity", "setting": "[1]", "value": 50, "unit": "%"}, {"measurement": "Activity", "setting": "[2]", "value": "Toxic"}, {"measurement": "Activity", "setting": "[3]", "value": "Non-Toxic"}, {"measurement": "pIC50", "setting": "[4]", "value": 5.87}, {"measurement": "pIC50", "setting": "[5]", "value": 7.95}]}, {"smiles": "Cc1cc(=O)[nH]c2c1C(=O)C(NCCCCNc1c3c(nc4cc(Cl)ccc14)CCCC3)=CC2=O", "values": [{"measurement": "Activity", "setting": "[1]", "value": 50, "unit": "%"}, {"measurement": "Activity", "setting": "[2]", "value": "Toxic"}, {"measurement": "Activity", "setting": "[3]", "value": "Non-Toxic"}, {"measurement": "pIC50", "setting": "[4]", "value": 5.55}, {"measurement": "pIC50", "setting": "[5]", "value": 8.25}]}]}
